From patent US5840895A, “Triazole intermediates for tricyclic benzazepine and benzothiazepine derivatives” (Meiji Seika Kabushiki Kaisha, priority 1993, dated 1998)
Read-outs that look alike come from different tables or passages of the source.

What was measured:
[1] = cited from earlier work
[2] = test system: allergic edema reaction at paw; test: Test for suppressing immediate and delayed allergic reaction (allergic edema reaction at paw, DNP-OA); format: in vivo, rat (male Wister); conditions: Rattus norvegicus; for inhibition in vivo at 10 mg/kg: oral
Experimental: Test for suppressing immediate and delayed allergic reaction
1×10^10 of inviable pertussis and 1 mg of dinitrophenylated ovalbumin (DNP-OA) were administered subcutaneously to the three paws except the right hind paw of male Wister rats having a body weight of 200 g. After 10 days, 5 μg of DNP-OA was further administered subcutaneously to the right hind paw of the animals to induce the allergic edema reaction at paw. The allergy suppressing effect of the test compounds was examined with reference to the edema volumes after 30 minutes and 8 hours of the induction of the allergic reaction as the immediate and delayed allergic reactions, respectively.
[…] On the other hand, only a solution of 0.25% Tween 80 was orally administered to rats as the untreated control, and 100 mg/kg of sodium chromoglycate subcutaneously or orally to rats as the positive control.
The rate of suppressing the allergic edema reaction at paw was calculated from the following equation.
Suppression rate of the allergic edema reaction at paw
A is an average edema volume in the control, and
B is an average edema volume in the drug treated group.

[3] = test system: histamine releasing reaction; test: Test of suppressing histamine releasing reaction (abdominal cavity cells of rats sensitised with anti-DNP-As serum, stimulated with DNP-As); format: cell-based, rat (male Wister); conditions: Rattus norvegicus; cells 10^5 cell/ml stimulated with 1 μg/ml DNP-As; test compounds 10^-5 -10^-10 M; read-out: IC50 (suppression of histamine releasing reaction)
Experimental: Test of suppressing histamine releasing reaction
Rat anti-dinitrophenylated ascaris protein (referred to hereinafter as DNP-As) serum was prepared according to the method described by Tada, T. and Okumura, K., J. Immun., 106 (4), 1971. Briefly, 1×10^10 of inviable pertussis and 1 mg of DNP-As were administered subcutaneously to the paw of female Brown Norway rats having a body weight of 200 g. After five days, 0.5 mg of DNP-As was further administered intramuscularly to the rear of the animals. Blood samples were taken after three days of the administration to prepare anti-serum.
A 1 ml portion of the serum diluted four times with physiological saline was administered intraperitoneally to male Wister rats. After two days, abdominal cavity was rinsed with phosphate buffer to recover the cells within the abdominal cavity. After the cell concentration was adjusted to 10^5 cell/ml, the cells were stimulated with 1 μg/ml of DNP-As. The amount of histamine released into the supernatant was measured according to the method described by Shore, P. A., Burkhalter, A. H. and Chon, V. H. Jr., J. Pharm. Exp. Ther., 127, 182-186 (1959).
A dose for suppressing 50% of the histamine releasing reaction, i.e., IC50 value, was calculated from the amounts of histamine released in the group treated with the test compounds in the molar concentrations (M) of 10^-5 -10^-10 and in the control group. The IC50 value as the suppressing effect of the drugs is shown in Table 6 with the IC50 value of sodium chromoglycic acid selected as the control compound.

[4] = 0.5 h, edema volume 30 minutes after induction, read-out: Suppressing Rate, Immediate Reaction
[5] = edema volume 8 hours after induction, read-out: Suppressing Rate, Slow reaction

SMILES | effectiveness on oral administration [1] | inhibition in vivo at 100 mg/kg ([2]; po, 0.5 h, orally, 30 minutes after induction (positive control), read-out: Suppressing Rate, Immediate Reaction) | inhibition in vivo at 100 mg/kg ([2]; po, orally, 8 hours after induction (positive control), read-out: Suppressing Rate, Slow reaction) | inhibition in vivo at 100 mg/kg ([2]; sc, 0.5 h, subcutaneously, 30 minutes after induction (positive control), read-out: Suppressing Rate, Immediate Reaction) | inhibition in vivo at 100 mg/kg ([2]; sc, subcutaneously, 8 hours after induction (positive control), read-out: Suppressing Rate, Slow reaction) | inhibition in vivo at 10 mg/kg [2, 4] | inhibition in vivo at 10 mg/kg [2, 5] | IC50 [3]
O=C(O)c1cc(=O)c2c(OCC(O)COc3cccc4oc(C(=O)O)cc(=O)c34)cccc2o1 [DSCG, sodium chromoglycate, reference compound] | no effectiveness | 16% | 20% | 75% | 53% |  |  | 
COc1cc2[nH]c(=O)c3nn[nH]c3c(=O)c2cc1OC [Example 43, 7,8-dimethoxy-4(5H),10-dioxo-1H-1,2,3-triazolo[4,5-c][l]benzazepine] |  |  |  |  |  | 59% | 53% | 1.4 nM
O=c1[nH]c2cc(CNS(=O)(=O)c3ccccc3)ccc2c(=O)c2[nH]nnc12 [Example 69, 7-(N-benzenesulfonylaminomethyl)-4(5H),10-dioxo-1H-1,2,3-triazolo [4,5-c][l]benzazepine] |  |  |  |  |  | 50% | 41% | 3.5 nM
COc1ccc(C(=O)COc2ccc3[nH]c(=O)c4nn[nH]c4c(=O)c3c2)cc1 [Example 84, 8-(4-methoxyphenacyloxy)-4(5H),10-dioxo-1H-1,2,3-triazolo[4,5-c][l]benzazepine] |  |  |  |  |  | 48% | 40% | 3.9 nM
